From patent publication US8178505B2, “Method of predicting and reducing risk of metastasis of breast cancer to lung” (Sloan-Kettering Institute for Cancer Research, priority 2005, dated 2012)

Legend:
LM2 cells = assay: Lung metastasis formation after tail vein injection of LM2 cells, pharmacological targeting, bioluminescence imaging; format: in vivo, Balb/c nude mice; conditions: preliminary results; drugs individually or in combination; FIGS. 2A and 2B
Experimental: Animal studies. All animal work was done in accordance with an IACUC approved protocol. Four to 6-week-old Balb/c nude mice (NCI) were used for all xenografting studies. For lung metastasis formation, 2×10^5 viable cells were washed and harvested in PBS and subsequently injected into the lateral tail vein in a volume of 0.1 mL. Endpoint assays were conducted at 15 weeks post-injection unless significant morbidity required that the mouse be sacrificed earlier. […] Mice were imaged for luciferase activity immediately after injection to exclude any that were not successfully xenografted.
Bioluminescent imaging and analysis. Mice were anesthetized and retro-orbitally injected with 1.5 mg of D-luciferin (15 mg/mL in PBS). Imaging was completed between 2-5 minutes post-injection using a Xenogen IVIS system coupled to Living Image acquisition and analysis software (Xenogen). For BLI plots, photon flux was calculated for each mouse using a rectangular region of interest (ROI) encompassing the thorax of the mouse in a prone position.

malignant cell lines = conditions: in culture; cited from earlier work
MMP-1, 3, 9, 10 and 11 = conditions: cited from earlier work

Compound | preventing lung metastasis (LM2 cells) | differentiation and growth of malignant cell lines (malignant cell lines) | production of MMP-1, 3, 9, 10 and 11 (MMP-1, 3, 9, 10 and 11; by inhibiting PKC) | direct effect on activity of MMPs (MMP-1, 3, 9, 10 and 11)
CNC(=O)[C@H](Cc1c[nH]c2ccccc12)NC(=O)[C@@H](CC(=O)NO)CC(C)C [GM-6001, Ilomastat] | findings similar to those obtained using genetic knockdowns |  |  | 
CCC/C=C/C=C/C(=O)O[C@H]1/C(=C/C(=O)OC)C[C@H]2C[C@H]([C@@H](C)O)OC(=O)C[C@H](O)C[C@@H]3C[C@H](OC(C)=O)C(C)(C)[C@](O)(C[C@@H]4C/C(=C/C(=O)OC)C[C@H](/C=C/C(C)(C)[C@]1(O)O2)O4)O3 [bryostatin-1] |  | induce differentiation and halt the growth of several malignant cell lines | can inhibit the production of MMP-1, 3, 9, 10 and 11 | does not directly affect the activity of MMPs
